Activity calls are given as the source filed them. The rule behind the calls is not given here.
How the values were obtained:
HCT-116 [1] = test: Inhibition of PI3K/AKT signalling pathway in human HCT-116 cells assessed as downregulation of AKT phosphorylation at […] residue at 100 nM incubated for 24 hrs under dark condition by Western blot; assay type: cell-based
[2] = Apparent permeability across apical to basolateral side in human Caco-2 cells at 10 uM incubated for 2 hrs by LC-MS/MS analysis; assay type: ADME, cell-based
HGC-27 [3] = test: Inhibition of PI3K/AKT signalling pathway in human HGC-27 cells assessed as downregulation of AKT phosphorylation at Ser473 residue at 100 nM incubated for 24 hrs under dark condition by Western blot; assay type: cell-based
HCT-116 [4] = test: Induction of cell cycle arrest in human HCT-116 cells assessed as accumulation at G0/G1 phase at 100 nM irradiated with 365 nm UV light for 5 mins incubated for 24 hrs by flow cytometry; assay type: functional, cell-based
HGC-27 [5] = test: Induction of cell cycle arrest in human HGC-27 cells assessed as accumulation at G0/G1 phase at 100 nM incubated for 24 hrs by flow cytometry; assay type: functional, cell-based
HGC-27 [6] = test: Inhibition of PI3K/AKT signalling pathway in human HGC-27 cells assessed as downregulation of AKT phosphorylation at […] residue at 100 nM incubated for 24 hrs under dark condition by Western blot; assay type: cell-based
HCT-116 [7] = test: Antiproliferative activity against human HCT-116 cells assessed as reduction in cell viability incubated in dark for 96 hrs by MTT assay; assay type: functional, cell-based; conditions: HCT-116, 96 h
MGC-803 [8] = test: Antiproliferative activity against human MGC-803 cells assessed as reduction in cell viability irradiated with 365 nm of UV for 5 mins and incubated in dark for 96 hrs by MTT assay; assay type: functional, cell-based; conditions: MGC-803, light or radiation study
MGC-803 [9] = test: Antiproliferative activity against human MGC-803 cells assessed as reduction in cell viability incubated in dark for 96 hrs by MTT assay; assay type: functional, cell-based; conditions: MGC-803, 96 h
HCT-116 [10] = test: Inhibition of colony formation in human HCT-116 cells at 100 nM incubated for 24 hrs by crystal violet staining based assay; assay type: functional, cell-based
HCT-116 [11] = test: Inhibition of PI3K/AKT signalling pathway in human HCT-116 cells assessed as downregulation of AKT phosphorylation at Ser473 residue at 100 nM irradiated with 365 nm UV light for 5 mins and incubated for 24 hrs by Western blot; assay type: cell-based
HCT-116 [12] = test: Anticancer activity against fluorescent labeled human HCT-116 cells xenografted in yolk of zebra embryo assessed as reduction in tumor size by measuring fluorescence density at 31.3 nM irradiated with 365 nm of UV light incubated for 48 hrs by fluorescence microscopic analysis; assay type: functional, cell-based
BGC-823 = test: Antiproliferative activity against human BGC-823 cells assessed as reduction in cell viability incubated in dark for 96 hrs by MTT assay; assay type: functional, cell-based; conditions: BGC-823, 96 h
Homo sapiens [13] = species: Homo sapiens; test: Anticancer activity against KOES-007 patient derived stomach cancer organoid assessed as inhibition of cell growth irradiated with 365 nm of UV light for 2 mins and incubated for 120 hrs; assay type: functional, tissue-based
HCT-116 [14] = test: Inhibition of PI3K/AKT signalling pathway in human HCT-116 cells assessed as downregulation of AKT phosphorylation at Ser473 residue at 100 nM incubated for 24 hrs under dark condition by Western blot; assay type: cell-based
[15] = target: Phosphatidylinositol 4,5-bisphosphate 3-kinase catalytic subunit beta isoform (Homo sapiens, UniProt P42338); test: Inhibition of PI3K beta (unknown origin) using PIP2 as substrate incubated in dark at room temperature for 1 hr in presence of ATP by ADP-Glo luminescent assay
Chain of Phosphatidylinositol 4,5-bisphosphate 3-kinase catalytic subunit beta isoform (P42338 whole entry, canonical isoform): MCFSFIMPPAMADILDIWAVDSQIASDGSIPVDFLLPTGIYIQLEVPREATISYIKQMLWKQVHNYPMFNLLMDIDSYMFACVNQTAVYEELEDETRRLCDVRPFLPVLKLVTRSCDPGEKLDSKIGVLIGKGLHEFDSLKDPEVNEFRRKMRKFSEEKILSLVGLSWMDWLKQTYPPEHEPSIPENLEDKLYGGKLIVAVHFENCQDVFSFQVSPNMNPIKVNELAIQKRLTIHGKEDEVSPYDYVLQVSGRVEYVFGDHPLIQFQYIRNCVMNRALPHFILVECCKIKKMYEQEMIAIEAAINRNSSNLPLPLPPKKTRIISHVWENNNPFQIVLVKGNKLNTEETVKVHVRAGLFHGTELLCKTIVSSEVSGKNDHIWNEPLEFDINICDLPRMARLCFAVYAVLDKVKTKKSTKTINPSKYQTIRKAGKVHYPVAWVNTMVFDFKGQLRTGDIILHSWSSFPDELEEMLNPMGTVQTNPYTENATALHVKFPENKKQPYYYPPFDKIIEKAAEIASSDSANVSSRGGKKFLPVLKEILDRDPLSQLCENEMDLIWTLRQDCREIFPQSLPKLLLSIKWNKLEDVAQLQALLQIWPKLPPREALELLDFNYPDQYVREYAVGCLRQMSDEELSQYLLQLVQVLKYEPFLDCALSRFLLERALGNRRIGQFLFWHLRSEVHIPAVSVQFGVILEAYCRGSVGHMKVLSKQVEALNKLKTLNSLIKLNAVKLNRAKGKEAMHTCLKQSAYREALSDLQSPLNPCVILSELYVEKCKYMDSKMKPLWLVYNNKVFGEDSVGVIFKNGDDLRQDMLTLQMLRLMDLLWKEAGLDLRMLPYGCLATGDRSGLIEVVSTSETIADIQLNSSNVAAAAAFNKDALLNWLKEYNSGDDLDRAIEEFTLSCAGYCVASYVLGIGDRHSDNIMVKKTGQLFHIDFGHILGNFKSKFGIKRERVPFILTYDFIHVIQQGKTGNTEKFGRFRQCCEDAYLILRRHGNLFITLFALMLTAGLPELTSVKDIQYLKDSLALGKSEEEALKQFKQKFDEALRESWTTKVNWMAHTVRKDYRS

[16] = Stability in dog liver microsomes assessed as half life at 1 uM in presence of NADPH measured upto 120 min by LC-MS/MS analysis; assay type: ADME, Canis lupus familiaris, Microsome
Homo sapiens [17] = species: Homo sapiens; test: Anticancer activity against KOCO-096 patient derived colon cancer organoid assessed as inhibition of cell growth irradiated with 365 nm of UV light for 5 mins and incubated for 120 hrs; assay type: functional, tissue-based
[18] = Stability in dog plasma assessed as half life at 1 uM measured upto 120 min by LC-MS/MS analysis; assay type: ADME, cell-free, Canis lupus familiaris
[19] = Apparent permeability across basolateral to apical side in human Caco-2 cells at 10 uM incubated for 2 hrs by LC-MS/MS analysis; assay type: ADME, cell-based
[20] = Plasma protein binding in dog at 1 uM by LC-MS/MS analysis; assay type: ADME, cell-free, Canis lupus familiaris; conditions: read-out: PPB (converted)
[21] = Plasma protein binding in rat at 1 uM by LC-MS/MS analysis; assay type: ADME, cell-free; conditions: read-out: PPB (converted)
[22] = target: Phosphatidylinositol 4,5-bisphosphate 3-kinase catalytic subunit alpha isoform (Homo sapiens, UniProt P42336); test: Inhibition of PI3K alpha (unknown origin) using PIP2 as substrate irradiated with 365 nm of UV exposure for 2 mins and incubation in dark at room temperature for 1 hr in presence of ATP measured by ADP-Glo luminescent assay
Chain of Phosphatidylinositol 4,5-bisphosphate 3-kinase catalytic subunit alpha isoform (P42336 whole entry, canonical isoform): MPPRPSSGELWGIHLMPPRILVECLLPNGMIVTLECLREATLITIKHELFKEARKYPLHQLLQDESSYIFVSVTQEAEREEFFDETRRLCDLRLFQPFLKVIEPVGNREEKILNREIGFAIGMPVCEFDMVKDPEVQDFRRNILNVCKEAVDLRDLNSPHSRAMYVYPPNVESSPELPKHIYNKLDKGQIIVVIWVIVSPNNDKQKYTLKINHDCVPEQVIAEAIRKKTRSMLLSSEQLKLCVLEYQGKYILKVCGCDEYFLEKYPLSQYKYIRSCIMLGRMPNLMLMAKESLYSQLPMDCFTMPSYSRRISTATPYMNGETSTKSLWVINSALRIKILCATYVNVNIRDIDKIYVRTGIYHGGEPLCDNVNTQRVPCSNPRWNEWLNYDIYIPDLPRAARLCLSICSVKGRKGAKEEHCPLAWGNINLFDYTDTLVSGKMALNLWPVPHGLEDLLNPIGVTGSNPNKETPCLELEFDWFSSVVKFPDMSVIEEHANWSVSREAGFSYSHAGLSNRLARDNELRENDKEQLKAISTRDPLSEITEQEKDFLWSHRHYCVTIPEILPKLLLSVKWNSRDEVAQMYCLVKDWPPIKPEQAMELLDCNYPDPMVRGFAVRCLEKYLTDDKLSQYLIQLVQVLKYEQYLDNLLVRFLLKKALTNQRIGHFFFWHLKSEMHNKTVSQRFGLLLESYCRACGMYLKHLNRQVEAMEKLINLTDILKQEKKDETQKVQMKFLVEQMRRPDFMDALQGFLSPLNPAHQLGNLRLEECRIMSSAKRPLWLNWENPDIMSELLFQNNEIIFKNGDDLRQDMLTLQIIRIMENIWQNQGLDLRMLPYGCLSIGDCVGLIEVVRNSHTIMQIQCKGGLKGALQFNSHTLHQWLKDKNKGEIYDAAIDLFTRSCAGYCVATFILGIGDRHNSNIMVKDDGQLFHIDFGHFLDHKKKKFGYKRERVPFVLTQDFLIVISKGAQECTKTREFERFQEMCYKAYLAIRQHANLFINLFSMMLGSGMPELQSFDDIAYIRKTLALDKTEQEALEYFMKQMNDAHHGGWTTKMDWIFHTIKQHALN

HGC-27 [23] = test: Inhibition of PI3K/AKT signalling pathway in human HGC-27 cells assessed as downregulation of AKT phosphorylation at Ser473 residue at 100 nM irradiated with 365 nm UV light for 5 mins and incubated for 24 hrs by Western blot; assay type: cell-based
[24] = Photo stability of compound assessed as release of 2,4-difluoro-N-(2-methoxy-5-(4-methyl-8-(tetrahydro-2H-pyran-4-yloxy)quinazolin-6-yl)pyridin-3-yl)benzenesulfonamide by measuring half life irradiated with 365 nm of UV for 5 min measured by HPLC analysis; assay type: physicochemical
HGC-27 [25] = test: Inhibition of colony formation in human HGC-27 cells irradiated with 365 nm of UV light for 5 min at 100 nM incubated for 24 hrs by crystal violet staining based assay; assay type: functional, cell-based
HCT-116 [26] = test: Inhibition of PI3K/AKT signalling pathway in human HCT-116 cells assessed as downregulation of AKT phosphorylation at […] residue at 100 nM irradiated with 365 nm UV light for 5 mins and incubated for 24 hrs by Western blot; assay type: cell-based

## COc1cc(CN(c2cc(-c3cc(OC4CCOCC4)c4ncnc(C)c4c3)cnc2OC)S(=O)(=O)c2ccc(F)cc2F)c([N+](=O)[O-])cc1OC
HCT-116 [1]
  inhibition: inactive
[2]
  Papp A→B at 2 h, 10 µM: 0.49 ×10⁻⁶ cm/s
HGC-27 [3]
  inhibition: inactive
HCT-116 [4]
  Activity: inactive
HGC-27 [5]
  Activity: inactive
HGC-27 [6]
  inhibition: inactive
HCT-116 [7]
  IC50: 1460 nM
MGC-803 [8]
  IC50: 329 nM
MGC-803 [9]
  IC50: 1740 nM
HCT-116 [10]
  inhibition: inactive
HCT-116 [11]
  inhibition: Active
HCT-116 [12]
  Activity: Active
BGC-823
  IC50: 2360 nM
Homo sapiens [13]
  Activity: Active
HCT-116 [14]
  inhibition: inactive
[15]
  IC50: 838 nM
[16]
  half-life at 1 µM: 4.62 min
Homo sapiens [17]
  Activity: Dose-Dependent Effect
[18]
  half-life at 1 µM: > 120 min
[19]
  Papp B→A at 2 h, 10 µM: 1.95 ×10⁻⁶ cm/s
[20]
  fraction unbound at 1 µM: 0.005
[21]
  fraction unbound at 1 µM: 0.006
[22]
  IC50: 0.58 nM
HGC-27 [23]
  inhibition: Active
[24]
  t1/2: 5 min
HGC-27 [25]
  inhibition: Active
HCT-116 [26]
  inhibition: Active

Reference: ChEMBL document CHEMBL5042472, “Design, Synthesis, and Biological Evaluation of a Novel Photocaged PI3K Inhibitor toward Precise Cancer Treatment” (J Med Chem, 2021)
